# Patent US8642593B2, “2,4-pyrimidinediamine compounds and prodrugs and their uses” (Rigel Pharmaceuticals, Inc., priority 2009, dated 2014)
# Read-outs that look alike come from different tables or passages of the source.
# Experiments:
# [1] = target: T1, Ret kinase in SK-N-SH brain neuroblastoma cells (Homo sapiens, UniProt P07949); assay: Cellular Ret Assay; assay type: cell-based; settings: GDNF, Table 2, unit inferred
# T1 construct: Ret is immunoprecipitated from the detergent-soluble cell lysate; host or cells: SK-N-SH brain neuroblastoma cells
# Experimental: Compounds are tested for the ability to inhibit Ret kinase in cells. SK-N-SH brain neuroblastoma cells (ATCC, #HTB-1, maintained and plated in DMEM (Cellgro Mediatech, #10-013-CV) with 10% fetal bovine serum (JRH, #12106-500M) are seeded in 10 cm plates in 10 mL of culture media and allowed to reach 85% confluence by the next day. The medium is replaced with 5 mL of DMEM (without fetal bovine serum) containing DMSO or test compound (final 0.1% DMSO), and incubated at 37° C./5% CO2 for 1 hour. SK-N-SH cells are then stimulated with 50 ng/mL of human recombinant GDNF (Peprotech, #450-10) for 10 minutes. Cells are washed once with cold 1×PBS and lysed with 500 μL of 1% NP-40 lysis buffer (Tris HCl pH 7.4 with 150 mM NaCl, 1 mM NaVn, 1% Nonidet-P40 (Fisher Scientific, #PI-28324), protease inhibitor tablet (Roche, 1697498)). […]
# After washing with 1×TBST for 2 hours with five buffer changes, the membrane is probed with Goat anti-Mouse IgG HRP antibody (Jackson Immunoresearch Labs, #115-035-146, 1:2000) in 1×TBST+5% milk for 1 hour at room temperature. The membrane is washed with TBST for 2 hours with five buffer changes, treated with ECL plus Western Blot detection reagent (GE Healthcare, formerly Amersham, #RPN2132) according to the instruction manual, and the chemiluminescent signal is detected on Kodak Biomax MR Film (VWR, # IB8701302).
# [2] = test system: allergen induced basophil degranulation; assay: CD63 Assay (BASOTEST, FACS, whole blood, anti-IgE); assay type: cell-based; settings: for potency compared with the control in the presence of whole blood (CD63 assay): vs control compound; for IC50: whole blood, anti-IgE, Table 2, unit inferred
# Experimental: Compounds are tested for the ability to inhibit allergen induced basophil degranulation. The BASOTEST® kit (Orpegen Pharma GmbH, #10-0500) is used in this assay. In a 5 mL FACS tube 105 μL of Heparinized whole blood, 25 μL of test compound solution (in DMSO) are incubated at room temperature for 30-60 minutes. To induce degranulation, 20 μL stimulation buffer (Reagent B) is added, and the tube is incubated for 10 min in a 37° C. water bath. Then, 100 μL of anti-IgE (2 μg/mL) is added, or 100 µL of washing solution (reagent A) is added (i.e., as a negative control). The tube is incubated for 20 min in a 37° C. water bath. Degranulation is then stopped by incubation on ice for 5 min. 20 μL of staining reagent (reagent F) is added, and the tube is incubated on ice in the dark for 20 min. 2 mL of room temperature lysing solution is added, and the tube is incubated at room temperature for 10 min. The tubes are spun down at 4° C. for 5 min at 1600 rpm, and the supernatant is discarded. 3 mL washing solution (reagent A) is added, and the tubes spun down at 4° C. for 5 min at 1600 rpm, and the supernatant is discarded. 200 μL washing solution is added to the remaining cell pellet, and the samples are incubated on ice in the dark until analysis (within 2 h). Analysis is performed using flow cytometry at 488 nm using the conditions specified in the BASOTEST® kit instructions to determine percentage of activated basophilic granulocytes.
# Syk kinase = target: T2, Syk kinase (Homo sapiens, UniProt P43405); assay: Fluorescence Polarization Syk kinase assay; assay type: biochemical; settings: for IC50: Table 2, unit inferred, read-out: FP-based Biochem Syk; for potency compared with the control, biochemical assay: vs control compound
# T2 construct: purchased Millipore #14-314
# Experimental: Compounds are tested for the ability to inhibit Syk kinase catalyzed phosphorylation of a peptide substrate in a biochemical fluorescence polarization assay with isolated Syk kinase.
# Test compound stock solutions (10 mM) containing are serially diluted in DMSO starting from 2.5 mM and then further diluted to desired concentration of 50 μM (5×) to yield 2% DMSO concentration in kinase buffer (20 mM HEPES, pH 7.4, 5 mM MgCl2, 2 mM MnCl2, 1 mM DTT, 0.1 mg/mL acetylated Bovine Gamma Globulin). The assay is carried out in a black 96 well low volume plate (Molecular Devices, #42-000-0117) by transferring compound in 2% DMSO (0.4% DMSO final) pre-mixed with ATP/substrate (TK2 peptide) in kinase buffer at room temperature. Syk kinase (Millipore, #14-314) is added to a final reaction volume of 20 μL, and the reaction is incubated for 30 minutes at room temperature. […] The reaction is stopped by addition of 20 μL of PTK quench mix containing EDTA (10 mM final)/anti-phosphotyrosine antibody (1× final)/fluorescent phosphopeptide tracer (0.5× final) diluted in FP dilution buffer to stop the reaction to a total volume of 40 μL according to the manufacturer's instructions (Invitrogen). The plate is incubated in the dark for additional 30 minutes at room temperature and then read on a Polarion fluorescence polarization plate reader (Tecan). Data are converted to amount of phosphopeptide present using a calibration curve generated by competition with the phosphopeptide competitor provided in the Tyrosine Kinase Assay Kit, Green (Invitrogen, #P2837).
# [3] = target: T3, VEGF-induced phosphorylation of VEGFR in HUVEC cells (Homo sapiens, UniProt P35968); assay: Cellular VEGFR Assay; assay type: cell-based; settings: for IC50: HUVEC cells, Table 2, unit inferred, read-out: Cellular VEGFR2; for selectivity against VEGF as compared to the control: vs control compound
# T3 construct: VEGF-induced phosphorylation of VEGFR in HUVEC cells; host or cells: HUVEC cells
# Experimental: The coated plates are then blocked with 2% BSA in PBS for 2 hours.
# Cells are washed 1× with PBS. 100 μL starvation medium (EBM2 media, Cambrex, #CC3156, containing 1% BSA and 0.2% FBS) is added and cells are returned to the incubator for 20-24 hours. Test compounds or control drugs are serially diluted in DMSO in a compound plate and further diluted 1:250 in starvation medium. 100 μL, of this 2× concentration is dosed to the cells. […] Plates are then placed on a rocker/shaker at 4° C. for 1 hour.
# Phosphorylated VEGFR2 is determined by ELISA. After a wash with TBST, 30 μL/well of the cell lysate is transferred into the anti-human VEGFR2 mAb-coated plates (described above) containing 200 μL/well of 1% BSA in PBS, and incubated with shaking at 4° C. overnight. […] The signal is read using a SpectraMax M5 plate reader.
# [4] = test system: mast cell activation induced by FcγR cross-linking (CHMC cells); assay: LD Tryptase CHMC: tryptase release assay; assay type: cell-based, Human; settings: for IC50: Mast cell; for potency compared with the control, whole cell assay: vs control compound
# Experimental: Compounds are assayed for inhibition of mast cell activation induced by FcγR cross-linking by measuring the activity of tryptase released upon degranulation as follows:
# Human mast cells are cultured and differentiated from CD38-negative progenitor cell as described in U.S. Patent Publication No. 2005/0234049, which is hereby incorporated herein by reference in its entirety. For example, 65 μL of various concentrations of the test compound are prepared in MT (137 mM NaCl, 2.7 mM KCl, 1.8 mM CaCl2, 1.0 mM MgCl2, 5.6 mM Glucose, 20 mM Hepes (pH 7.4), 0.1% Bovine Serum Albumin, (Sigma, #A4503)) containing 2% MeOH and 1% DMSO, or control buffer are added to duplicate 96-well V-bottom plates. Pelleted and re-suspended (in warm MT) CHMC cells (65 μL) are added to each 96-well plate, mixed and incubated for 1 hour at 37° C. […] MT (25 μL) is added to control wells. After a 60-minute incubation at 37° C., cells and cell debris were pelleted by centrifugation at 1000 rpm for 10 min and tryptase and leukotriene C4 levels are measured.
# To measure tryptase levels, 25 μL of supernatant from each well is transferred to a fresh 96-well black bottom plate, to which 100 μL of fresh tryptase substrate solution [(Z-Ala-Lys-Arg-AMC2TFA; Enzyme Systems Products, #AMC-246)]1:2000 in tryptase assay buffer [0.1M Hepes (pH 7.5), 10% w/v Glycerol, 10 μM Heparin (Sigma H-4898) 0.01% NaN3] is added. After 30 minutes incubation at room temperature, the optical density of the plates is measured at 355 nm/460 nm on a spectrophotometric plate reader.
# Compounds of the disclosure were assayed for their ability to inhibit mast cell activation induced by FcγR cross-linking by measuring the activity of tryptase released upon degranulation.
# [5] = Homo sapiens, Table 2, unit inferred, read-out: LD Tryptase CHMC
# [6] = Homo sapiens, read-out: IC50 value (tryptase assay)
# [7] = human mast cells, anti-IgG stimulation, read-out: IC50 (LD Tryptase CHMC)
# T3 sequence (P35968 20-1356): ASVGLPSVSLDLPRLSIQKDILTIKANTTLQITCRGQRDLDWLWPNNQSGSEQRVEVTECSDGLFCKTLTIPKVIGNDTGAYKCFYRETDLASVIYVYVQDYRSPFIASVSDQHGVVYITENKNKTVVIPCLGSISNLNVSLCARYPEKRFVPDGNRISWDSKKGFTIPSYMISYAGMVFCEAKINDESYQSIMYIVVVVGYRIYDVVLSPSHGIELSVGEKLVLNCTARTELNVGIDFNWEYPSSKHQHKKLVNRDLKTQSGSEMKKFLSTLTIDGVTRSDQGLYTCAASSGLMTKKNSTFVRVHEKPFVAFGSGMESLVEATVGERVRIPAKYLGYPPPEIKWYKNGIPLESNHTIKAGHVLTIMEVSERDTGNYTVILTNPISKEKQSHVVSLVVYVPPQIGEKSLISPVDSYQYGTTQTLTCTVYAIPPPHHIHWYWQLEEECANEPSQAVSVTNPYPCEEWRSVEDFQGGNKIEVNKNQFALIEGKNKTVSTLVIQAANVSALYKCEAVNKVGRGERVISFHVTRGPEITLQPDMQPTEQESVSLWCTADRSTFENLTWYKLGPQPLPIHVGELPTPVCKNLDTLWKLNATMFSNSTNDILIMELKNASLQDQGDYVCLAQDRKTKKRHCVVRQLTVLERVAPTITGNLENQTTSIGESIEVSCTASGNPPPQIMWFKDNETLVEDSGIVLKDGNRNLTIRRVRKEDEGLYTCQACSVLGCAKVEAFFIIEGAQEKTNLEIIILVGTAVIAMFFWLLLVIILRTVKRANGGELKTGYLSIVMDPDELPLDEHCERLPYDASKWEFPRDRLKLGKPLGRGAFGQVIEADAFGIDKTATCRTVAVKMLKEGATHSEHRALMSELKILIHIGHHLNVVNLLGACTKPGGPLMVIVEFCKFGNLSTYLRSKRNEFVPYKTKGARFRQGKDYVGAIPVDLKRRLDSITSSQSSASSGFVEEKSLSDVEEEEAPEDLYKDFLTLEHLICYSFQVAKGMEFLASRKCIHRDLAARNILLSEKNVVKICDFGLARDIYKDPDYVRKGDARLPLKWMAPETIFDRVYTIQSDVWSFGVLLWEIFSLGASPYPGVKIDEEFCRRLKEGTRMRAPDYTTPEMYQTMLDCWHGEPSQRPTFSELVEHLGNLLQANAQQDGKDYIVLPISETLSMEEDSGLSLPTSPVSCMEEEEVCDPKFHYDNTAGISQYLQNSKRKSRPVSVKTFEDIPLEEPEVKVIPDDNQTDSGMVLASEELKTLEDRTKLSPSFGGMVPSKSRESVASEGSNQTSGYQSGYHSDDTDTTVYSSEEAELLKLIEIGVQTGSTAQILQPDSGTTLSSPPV
# T1 sequence (P07949 29-1114): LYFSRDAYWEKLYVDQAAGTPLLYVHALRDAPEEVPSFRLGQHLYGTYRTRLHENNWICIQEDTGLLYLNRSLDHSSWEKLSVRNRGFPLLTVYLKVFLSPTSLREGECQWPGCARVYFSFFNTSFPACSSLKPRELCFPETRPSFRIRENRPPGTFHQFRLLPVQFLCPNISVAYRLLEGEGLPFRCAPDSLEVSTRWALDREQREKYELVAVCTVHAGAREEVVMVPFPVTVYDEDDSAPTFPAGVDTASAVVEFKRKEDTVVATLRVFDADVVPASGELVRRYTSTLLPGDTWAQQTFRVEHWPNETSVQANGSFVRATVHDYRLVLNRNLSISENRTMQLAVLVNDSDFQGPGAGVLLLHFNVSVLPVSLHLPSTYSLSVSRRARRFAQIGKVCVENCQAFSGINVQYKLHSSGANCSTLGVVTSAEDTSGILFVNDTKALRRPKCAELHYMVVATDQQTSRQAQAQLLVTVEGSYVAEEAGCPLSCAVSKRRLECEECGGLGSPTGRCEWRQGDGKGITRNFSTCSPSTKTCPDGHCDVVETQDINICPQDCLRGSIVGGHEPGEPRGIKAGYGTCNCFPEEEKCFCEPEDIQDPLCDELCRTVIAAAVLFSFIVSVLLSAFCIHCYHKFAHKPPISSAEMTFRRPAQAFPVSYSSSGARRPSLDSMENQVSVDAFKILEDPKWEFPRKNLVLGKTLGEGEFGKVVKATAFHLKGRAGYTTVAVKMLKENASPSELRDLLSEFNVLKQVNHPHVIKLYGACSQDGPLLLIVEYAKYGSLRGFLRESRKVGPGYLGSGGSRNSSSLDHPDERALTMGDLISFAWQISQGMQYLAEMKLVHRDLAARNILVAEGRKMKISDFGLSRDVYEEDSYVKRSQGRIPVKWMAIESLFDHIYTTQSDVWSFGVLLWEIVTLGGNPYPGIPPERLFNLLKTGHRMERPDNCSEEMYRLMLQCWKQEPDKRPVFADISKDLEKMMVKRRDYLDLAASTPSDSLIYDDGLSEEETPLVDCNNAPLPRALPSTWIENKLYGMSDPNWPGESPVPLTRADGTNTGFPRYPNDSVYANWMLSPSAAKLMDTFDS
SMILES,IC50 [1],potency compared with the control in the presence of whole blood (CD63 assay) [2],IC50 [2],IC50 (Syk kinase),"potency compared with the control, biochemical assay (Syk kinase)",IC50 [3],selectivity against VEGF as compared to the control [3],"IC50 [4, 5]","IC50 [4, 6]","IC50 [4, 7]","potency compared with the control, whole cell assay [4]"
"CC1(C)Oc2ccc(Nc3nc(Nc4ccc(N5CCOCC5)nc4)ncc3F)nc2NC1=O [Compound 1, N4-(2,2-Dimethyl-3-oxo-4H-5-pyrido[1,4]oxazin-6-yl)-5-fluoro-N2-[6-morpholinopyridin-3-yl]-2,4-pyrimidinediamine]",> 5000 nM,more potent,250 nM,40 nM,somewhat less potent than the control,16800 nM,significantly increased selectivity,90 nM,< 100 nM,90 nM,somewhat less potent than the control
"CC1(C)Oc2ccc(Nc3nc(Nc4ccc(N5CCOCC5)cc4)ncc3F)nc2NC1=O [Compound 3, N4-(2,2-Dimethyl-3-oxo-4H-5-pyrido[1,4]oxazin-6-yl)-5-fluoro-N2-(4-morpholinophenyl)-2,4-pyrimidinediamine]",> 1000 nM,more potent,300 nM,80 nM,somewhat less potent than the control,5230 nM,significantly increased selectivity,80 nM,< 100 nM,80 nM,somewhat less potent than the control
